Source: patent publication US20210255193A1, “LYSINE REACTIVE PROBES AND USES THEREOF” (The Scripps Research Institute, priority 2017, published 2021)

What was measured:
PMVK = molecular target: T1, PMVK (Homo sapiens, UniProt Q15126); experiment: direct labeling of recombinantly expressed proteins by gel-based ABPP (WT vs lysine mutant); type: binding; conditions: PMVK K48, KR mutant; 10 μM probe, 1 h
T1 construct: expressed in transfected cells; host or cells: HEK 293T
T1 sequence (Q15126 1-192): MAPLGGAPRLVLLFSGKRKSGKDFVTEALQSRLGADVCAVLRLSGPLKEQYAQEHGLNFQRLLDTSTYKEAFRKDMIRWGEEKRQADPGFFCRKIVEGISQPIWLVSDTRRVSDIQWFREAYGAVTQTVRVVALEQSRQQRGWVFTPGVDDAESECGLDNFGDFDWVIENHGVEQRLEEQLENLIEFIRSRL
Text: (§1) Subcloning and mutagenesis. Unless noted below, genes were amplified from cDNA prepared from low passage HEK 293T cells using the Ribozol RNA extraction reagent (Amresco) and the iScript Reverse Transcription Supermix kit (Bio-Rad). For the following proteins cDNA clones were used for amplification instead: PFKP (5180268, Dharmacon), HK1 (BC008730, transomic), SIN3A (BC137098, transomic), G6PD (BC000337, transomic) and TGIF1 (BC031268, transomic). Mouse CARM1 in pFLAG-CMV-6c was a kind gift from the Mowen lab (TSRI). NUDT2 was obtained as synthesized gene (IDT). DNA was amplified with custom forward and reverse primers using phusion polymerase (NEB, M0530S), digested with the indicated restriction enzyme and ligated into pFLAG-CMV-6c or pRK5 with the appropriate affinity tag. Lysine mutants were generated using QuikChange site-directed mutagenesis using Phusion® High-Fidelity DNA Polymerase and primers containing the desired mutations and their respective complements. The cloning of TTR and its K35A mutant has been described in Choi et al., “Chemoselective small molecules that covalently modify one lysine in a non-enzyme protein in plasma,” Nat. Chem. Biol. 6, 133-139 (2010). TTR was expressed in E. coli and purified as described. For gel-based experiments 1 μM TTR was added into 1 mg ml^−1 soluble MDA-MB-231 lysate.
(§2) Recombinant expression of proteins by transient transfection. HEK 293T cells were grown to 50% confluency in 10 ml DMEM supplemented with 10% fetal bovine serum (FBS), penicillin, streptomycin and glutamine in 10 cm tissue culture dishes. 3 μg of DNA was diluted in 500 μL DMEM and 30 μL of PEI (MW 40,000, 1 mg ml^−1, Polysciences) were added. The mixture was incubated at room temperature for 30 min and added dropwise to the cells. Cells were grown for 48 h at 37° C. with 5% CO2. Cells were washed with cold PBS, scraped with cold PBS and cell pellets were isolated by centrifugation (1,400 g, 3 min, 4° C.), and stored at −80° C. until use. Cell pellets were resuspended in PBS, lysed by sonication and fractionated (100,000 g, 45 min) to yield soluble and membrane fractions. The soluble fraction was adjusted to a final protein concentration of 1 mg ml^−1 for gel-based ABPP experiments.
(§3) Direct labeling of recombinantly expressed proteins by gel-based ABPP. 50 μL of soluble HEK 293T proteome (1 mg ml^−1) expressing the respective protein (WT or KR mutant) or transfected with an empty vector were treated with 10 μM of the indicated probe for 1 h at room temperature. The samples were analyzed as described in the previous section. For quantification of relative labeling of the different protein variants, the intensity of labeling was determined by quantifying the integrated optical intensity of the bands using ImageLab 5.2.1 software (BioRad).

PFKM = molecular target: T2, PFKM (Homo sapiens, UniProt P08237); experiment: as above; type: binding; conditions: PFKM K678, KR mutant; 10 μM probe, 1 h
T2 construct: expressed in transfected cells; host or cells: HEK 293T
T2 sequence (P08237 1-780): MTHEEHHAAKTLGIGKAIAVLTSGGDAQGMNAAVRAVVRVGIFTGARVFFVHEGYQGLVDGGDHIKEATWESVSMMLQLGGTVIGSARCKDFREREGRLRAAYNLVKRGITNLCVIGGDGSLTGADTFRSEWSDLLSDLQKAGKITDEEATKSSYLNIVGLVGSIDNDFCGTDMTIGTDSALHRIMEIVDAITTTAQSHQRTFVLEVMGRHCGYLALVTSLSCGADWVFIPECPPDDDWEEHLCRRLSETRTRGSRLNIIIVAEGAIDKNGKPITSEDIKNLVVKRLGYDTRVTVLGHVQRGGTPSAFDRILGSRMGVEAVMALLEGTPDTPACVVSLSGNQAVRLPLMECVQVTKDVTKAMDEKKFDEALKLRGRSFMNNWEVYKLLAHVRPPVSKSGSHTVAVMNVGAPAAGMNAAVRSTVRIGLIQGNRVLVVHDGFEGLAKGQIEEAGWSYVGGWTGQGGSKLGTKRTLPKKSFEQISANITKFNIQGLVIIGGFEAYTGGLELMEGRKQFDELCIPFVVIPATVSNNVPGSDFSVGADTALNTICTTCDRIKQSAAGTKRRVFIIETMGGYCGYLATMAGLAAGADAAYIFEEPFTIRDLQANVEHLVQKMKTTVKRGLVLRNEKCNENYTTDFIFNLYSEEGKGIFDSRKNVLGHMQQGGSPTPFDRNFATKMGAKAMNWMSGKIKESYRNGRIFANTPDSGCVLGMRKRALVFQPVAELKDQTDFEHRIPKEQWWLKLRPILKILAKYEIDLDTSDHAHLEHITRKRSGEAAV
Text: as §1, §2, §3

C#CCCC(=O)Oc1c(F)c(F)c(S(=O)(=O)[O-])c(F)c1F.[Na+] [probe 1, reference compound]
labeling of WT vs mutant protein by probe (PMVK): HD (the WT labeled more than the mutant (>4x difference quantified)) | labeling of WT vs mutant protein by probe (PFKM): HD (the WT labeled more than the mutant (>4x difference quantified))

C#CCCC(=O)Oc1c(F)c(F)c(F)c(F)c1F [probe 6, Pentafluorophenyl 4-pentynoate]
labeling of WT vs mutant protein by probe (PMVK): ND (the WT did not label more than the mutant (<2x difference quantified)) | labeling of WT vs mutant protein by probe (PFKM): ND (the WT did not label more than the mutant (<2x difference quantified))

C#Cc1ccc(C(=O)Oc2ccccc2[N+](=O)[O-])cc1 [probe 10, 2-Nitrophenyl 4-ethynylbenzoate]
labeling of WT vs mutant protein by probe (PMVK): ND (the WT did not label more than the mutant (<2x difference quantified)) | labeling of WT vs mutant protein by probe (PFKM): PD (the WT labeled more than the mutant (>2x difference quantified))

C#Cc1ccc(C(=O)Oc2c(F)c(F)cc(F)c2F)cc1 [probe 12, 2,3,5,6-Tetrafluorophenyl 4-ethynylbenzoate]
labeling of WT vs mutant protein by probe (PMVK): ND (the WT did not label more than the mutant (<2x difference quantified)) | labeling of WT vs mutant protein by probe (PFKM): PD (the WT labeled more than the mutant (>2x difference quantified))

C#Cc1ccc(C(=O)Oc2c(F)c(F)c(F)c(F)c2F)cc1 [probe 13, Pentafluorophenyl 4-ethynylbenzoate]
labeling of WT vs mutant protein by probe (PMVK): ND (the WT did not label more than the mutant (<2x difference quantified)) | labeling of WT vs mutant protein by probe (PFKM): PD (the WT labeled more than the mutant (>2x difference quantified))

Cc1cc(C)n2c1C=C1C=CC(CCC(=O)Oc3c(F)c(F)c(S(=O)(=O)[O-])c(F)c3F)=[N+]1[B-]2(F)F.[Na+] [probe 18, reference compound]
labeling of WT vs mutant protein by probe (PMVK): HD (the WT labeled more than the mutant (>4x difference quantified)) | labeling of WT vs mutant protein by probe (PFKM): PD (the WT labeled more than the mutant (>2x difference quantified))
